This test concerns the target T1, UBE2N (Homo sapiens, UniProt P61088).
T1 sequence (P61088 1-152): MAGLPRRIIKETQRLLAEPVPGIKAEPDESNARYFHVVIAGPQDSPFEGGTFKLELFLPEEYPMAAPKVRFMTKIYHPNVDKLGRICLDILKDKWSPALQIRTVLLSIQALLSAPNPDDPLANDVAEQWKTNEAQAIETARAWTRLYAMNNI
The experiment in a line: microscale thermophoresis. Type of test: binding. The conditions noted are these: PBS pH 7.4, 0.05% Tween20; labelled protein; MST-on time 9-10 s; n = 3.

As for `COC(=O)c1cc2c(cn1)[nH]c1ccc(O)cc12` [Variabine B], the Kd came to 35.3 ± 6.3 µM.

The values are drawn from doi:10.64898/2025.12.09.693205v1 (biorxiv, 2025).
